Test results taken from patent US12116343B2, “Inhibitors of APOL1 and methods of using same” (Vertex Pharmaceuticals Incorporated, priority 2020, dated 2024).
pIC50: −log10 of the molar value.

Biological target: T1, APOL1 G1 Protein (Homo sapiens, UniProt O14791, I384M/S342G)
T1 sequence (O14791 28-398 S342G/I384M): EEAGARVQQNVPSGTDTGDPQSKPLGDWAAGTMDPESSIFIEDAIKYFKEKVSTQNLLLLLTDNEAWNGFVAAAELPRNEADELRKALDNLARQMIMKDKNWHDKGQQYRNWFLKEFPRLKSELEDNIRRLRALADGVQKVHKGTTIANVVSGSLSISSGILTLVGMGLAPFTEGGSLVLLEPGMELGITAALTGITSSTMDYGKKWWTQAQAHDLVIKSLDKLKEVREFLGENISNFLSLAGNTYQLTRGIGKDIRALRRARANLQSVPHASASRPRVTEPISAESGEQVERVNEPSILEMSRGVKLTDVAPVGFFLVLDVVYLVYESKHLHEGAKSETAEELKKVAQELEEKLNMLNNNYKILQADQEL
Test: Trypanosoma brucei brucei lysis assay using APOL1 recombinant protein (AlamarBlue viability)
Assay type: cell-based
Conditions: Trypanosoma brucei brucei lysis, recombinant APOL1, AlamarBlue; read-out: Trypanosoma Assay (IC50)
Source text: Trypanosoma brucei brucei is a blood stream parasite to which human, gorillas and baboon are immune due to the presence of the APOL1 protein in their HDL particles. The protein is uptaken by the parasite via the TbHpHb receptor located in its flagellar pocket and is bonded by the Hpr protein contained in the HDL particles which triggers the receptor endocytosis by the parasite.
Following endocytosis, the formed vesicle containing the HDL particle matures from early to late endosome, and subsequently to lysosome. The concomitant pH change in the lumen of the vesicle triggers the insertion of the APOL1 protein into the membrane of the late endosome/lysosome and hereby triggers lysosomal membrane premeabilisation and as a further downstream event, trypanosome lysis. Trypanosoma brucei brucei is sensitive to lysis by all three APOL1 variants (G0, G1, and G2).
The Trypanosoma brucei brucei lysis assay is a lysis assay of the parasite using recombinant APOL1 protein variant followed by a fluorescent detection method of viability by the addition of AlamarBlue reagent to the assay well, a general metabolic redox indicator (AlamarBlue assay).
Briefly, the AlamarBlue active compound, the resazurin, a blue, water soluble, non-toxic and cell permeable molecule, which can be followed by absorbance, is reduced by various metabolic pathways into resorufin, a red compound which can be followed by either absorbance or fluorescence. The assay allows the calculation of the percent viability (percent of living Trypanosomes remaining in each well) at the end of a lysis relative to the untreated condition by interpolation of fluorescent values (FLU) on a standard curve with a known amount of seeded trypanosome/well.
Trypanosoma brucei brucei (ATCC, Cat. No. PRA-382) • Lister 427 VSG 221 bloodstream form.
Thaw/Expansion Media (ATCC Medium 2834 Modified HMI-9 Medium)
Assay Media (No Phenol Red/No FBS): Make on Day of Use
Hypoxanthine Stock (100×)-9 (10×)
Equipment • El-Clip Tip pipette 12 channel adjustable 2-125 μL, Cat. No. 4672070BT • ThermoFisher MultiDrop 384, Cat. No. 5840300 • Multidrop • Agilent Bravo, Cat. No. G5409A • Bravo • SpectraMax M5
Assay Ready Plates (ARPs) • ARPs comes in two formats: • […] final top concentration with a 2.5 fold dilution down. • […] final top concentration with a 3 fold dilution down. • Both have a 10 point Dose response. • 0.1% DMSO final in the Black Assay Plate. • Compounds are diluted 1000 fold in the Black Assay Plate. • Each plate is designed for 14 compounds in duplicate. • In the final Black Assay Plate:
Trypanosoma brucei brucei Culture
Step 2, Day 4 • Centrifuge at 800×g for 5 minutes at room temperature. • Resuspend in 1 mL media. • Make a 1:25 fold dilution (10 μL/240 μL media). • Count on a hemocytometer (after adding parasites). • Let sit for 1-2 minutes for the parasites to settle. • Count should be approximately 100 viable motile parasites/16 grid or approximately 25×10^6 parasites/flask. • Passage the parasites by adding 1×10^6 parasites/T75 flask in 20 mL media. • Passage the parasites by adding 2.33×10^6 parasites/T175 flask in 46.6 mL media. • For every T75 flask should make enough for approximately 1.5×384 well assay plates. • For every T175 flask should make enough for approximately 3.8×384 well assay plates.
Step 3, Day 6 • Centrifuge at 800×g for 5 minutes. • Resuspend in 3 mL assay media (No phenol red, no FBS) per 75 starting flask. • Resuspend in 7 mL assay media (No phenol red, no FBS) per 175 flask • Make a 1:25 fold dilution. • Count by hemocytometer. • Every T75 flask set up should have approximately 75×10^6 parasites/flask (verify doubling time=8.7 hrs±1 hr). • Every T175 flask set up should have approximately 175×10^6 parasites/flask (verify doubling time=8.7 hrs±1 hr). • Require 46×10^6 parasites per 384 well plate (at 120,000 parasites per well). Protocol B […]

| Compound | pIC50 |
| --- | --- |
| CCC(O)(CCCO)CNC(=O)[C@H]1C[C@H](c2c(-c3ccc(F)cc3)[nH]c3c(F)cc(F)cc32)C1 (stereo partly drawn) [Compound 119] | < 6.00 |
| O=C(NC1CC(O)C1)[C@H]1C[C@H](c2c(-c3ccc(F)cc3)[nH]c3c(F)cc(F)cc32)C1 (stereo partly drawn) [Compound 5] | 6.00 to 6.60 |
| O=C([C@H]1C[C@H](c2c(-c3ccc(F)cc3)[nH]c3c(F)cc(F)cc32)C1)N1CC(n2cccn2)C1 [Compound 96] | < 6.00 |
| O=C([C@H]1C[C@H](c2c(-c3ccc(F)cc3)[nH]c3c(F)cc(F)cc32)C1)N1CC[C@H](CO)[C@H](O)C1 [Compound 100] | < 6.00 |
| O=C(NCCCO)[C@H]1C[C@H](c2c(-c3ccc(F)cc3)[nH]c3c(F)cc(F)cc32)C1 [Compound 104] | > 6.60 |
| O=C(O)CNC(=O)[C@H]1C[C@H](c2c(-c3ccc(F)cc3)[nH]c3c(F)cc(F)cc32)C1 [Compound 10] | < 6.00 |
| O=C([C@H]1C[C@H](c2c(-c3ccc(F)cc3)[nH]c3c(F)cc(F)cc32)C1)N(CCO)c1cnccn1 [Compound 132] | < 6.00 |
| O=C([C@H]1C[C@H](c2c(-c3ccc(F)cc3)[nH]c3c(F)cc(F)cc32)C1)N1CCOCC1CCO (stereo partly drawn) [Compound 113] | < 6.00 |
| O=C([C@H]1C[C@H](c2c(-c3ccc(F)cc3)[nH]c3c(F)cc(F)cc32)C1)N(CCOCCO)C1CCC1 [Compound 121] | < 6.00 |
| O=C([C@H]1C[C@H](c2c(-c3ccc(F)cc3)[nH]c3c(F)cc(F)cc32)C1)N1CCOC(CO)C1 (stereo partly drawn) [Compound 148] | < 6.00 |
| O=C1CC[C@@H](NC(=O)[C@H]2C[C@H](c3c(-c4ccc(F)cc4)[nH]c4c(F)cc(F)cc43)C2)C1 [Compound 157] | < 6.00 |
| O=C([C@H]1C[C@H](c2c(-c3ccc(F)cc3)[nH]c3c(F)cc(F)cc32)C1)N1CCCC1CCO (stereo partly drawn) [Compound 101] | 6.00 to 6.60 |
| CC(C)[C@@H](CO)NC(=O)[C@H]1C[C@H](c2c(-c3ccc(F)cc3)[nH]c3c(F)cc(F)cc32)C1 [Compound 141] | 6.00 to 6.60 |
| O=C([C@H]1C[C@H](c2c(-c3ccc(F)cc3)[nH]c3c(F)cc(F)cc32)C1)N1CCN(CCO)CC1 [Compound 126] | < 6.00 |
| O=C(N[C@H](CO)C(F)(F)F)[C@H]1C[C@H](c2c(-c3ccc(F)cc3)[nH]c3c(F)cc(F)cc32)C1 [Compound 164] | > 6.60 |
| CC1(C)CN(C(=O)[C@H]2C[C@H](c3c(-c4ccc(F)cc4)[nH]c4c(F)cc(F)cc43)C2)CC1O (stereo partly drawn) [Compound 102] | < 6.00 |
| O=C(NCc1cocn1)[C@H]1C[C@H](c2c(-c3ccc(F)cc3)[nH]c3c(F)cc(F)cc32)C1 [Compound 168] | > 6.60 |
| O=C([C@H]1C[C@H](c2c(-c3ccc(F)cc3)[nH]c3c(F)cc(F)cc32)C1)N(CCO)CCCO [Compound 117] | 6.00 to 6.60 |

| Compound | pIC50 |
| --- | --- |
| O=C([C@H]1C[C@H](c2c(-c3ccc(F)cc3)[nH]c3c(F)cc(F)cc32)C1)N1C[C@H]2C[C@@]2(CO)C1 [Compound 98] | < 6.00 |
| O=C([C@H]1C[C@H](c2c(-c3ccc(F)cc3)[nH]c3c(F)cc(F)cc32)C1)N1CCC(CO)(CO)CC1 [Compound 108] | < 6.00 |
| O=C1C[C@@H](NC(=O)[C@H]2C[C@H](c3c(-c4ccc(F)cc4)[nH]c4c(F)cc(F)cc43)C2)C(=O)N1 [Compound 166] | > 6.60 |
| O=C(NC(CO)CO)[C@H]1C[C@H](c2c(-c3ccc(F)cc3)[nH]c3c(F)cc(F)cc32)C1 [Compound 8] | > 6.60 |
| O=C([C@H]1C[C@H](c2c(-c3ccc(F)cc3)[nH]c3c(F)cc(F)cc32)C1)N1CCCC[C@@H]1CO [Compound 107] | 6.00 to 6.60 |
| CN1CCC(NC(=O)[C@H]2C[C@H](c3c(-c4ccc(F)cc4)[nH]c4c(F)cc(F)cc43)C2)C1=O (stereo partly drawn) [Compound 7] | 6.00 to 6.60 |
| O=C([C@H]1C[C@H](c2c(-c3ccc(F)cc3)[nH]c3c(F)cc(F)cc32)C1)N1CCC[C@@H](CO)C1 [Compound 109] | < 6.00 |
| CN(C)C[C@@H]1CCN(C(=O)[C@H]2C[C@H](c3c(-c4ccc(F)cc4)[nH]c4c(F)cc(F)cc43)C2)C[C@H]1O [Compound 110] | 6.00 to 6.60 |
| O=C(NCc1cnco1)[C@H]1C[C@H](c2c(-c3ccc(F)cc3)[nH]c3c(F)cc(F)cc32)C1 [Compound 170] | > 6.60 |
| CCC1(O)CN(C(=O)[C@H]2C[C@H](c3c(-c4ccc(F)cc4)[nH]c4c(F)cc(F)cc43)C2)C1 [Compound 112] | < 6.00 |
| O=C1CCC(NC(=O)[C@H]2C[C@H](c3c(-c4ccc(F)cc4)[nH]c4c(F)cc(F)cc43)C2)C1 (stereo partly drawn) [Compound 159] | < 6.00 |
| CC(C)(NC(=O)[C@H]1C[C@H](c2c(-c3ccc(F)cc3)[nH]c3c(F)cc(F)cc32)C1)C(N)=O [Compound 11] | > 6.60 |
| CC(O)CN(CCO)C(=O)[C@H]1C[C@H](c2c(-c3ccc(F)cc3)[nH]c3c(F)cc(F)cc32)C1 (mixture of isomers) [Compound 129] | > 6.60 |
| O=C([C@H]1C[C@H](c2c(-c3ccc(F)cc3)[nH]c3c(F)cc(F)cc32)C1)N1CCC(CCO)CC1 [Compound 134] | < 6.00 |
| O=C1CC[C@H](NC(=O)[C@H]2C[C@H](c3c(-c4ccc(F)cc4)[nH]c4c(F)cc(F)cc43)C2)C1 [Compound 139] | 6.00 to 6.60 |
| O=C([C@H]1C[C@H](c2c(-c3ccc(F)cc3)[nH]c3c(F)cc(F)cc32)C1)N1CCC[C@@H](O)C1 [Compound 149] | > 6.60 |
| O=C([C@H]1C[C@H](c2c(-c3ccc(F)cc3)[nH]c3c(F)cc(F)cc32)C1)N1CCC[C@H](O)C1 [Compound 105] | 6.00 to 6.60 |
| O=C(N[C@@H](CO)C(F)(F)F)[C@H]1C[C@H](c2c(-c3ccc(F)cc3)[nH]c3c(F)cc(F)cc32)C1 [Compound 163] | > 6.60 |
